Measured values from patent US20260028364A1, “CATIONIC CHROMENONES AND THEIR USE IN ONCOLOGY” (FLORATEK PHARMA S.A., priority 2022, published 2026).
pIC50: −log10 of the molar value. Blank lines part the entries; values can stand above or below the compound they belong to.

Tests used:
Format in all cases: cell-based
Wnt/Beta-Catenin = experiment: SelectScreen CellSensor pathway inhibition, Wnt/Beta-Catenin; details: LEF-TCF-bla HCT116, no stimulus (constitutively activated)
Procedure: (§1) Inhibition of various cellular pathways known to be involved in malignancy was tested using the SelectScreen Cell-based Pathway Profiling GeneBLAzer™ cell signaling pathway specific CellSensor™ cell lines ((Thermo Fisher). The assay is based on a beta-lactamase reporter activity which is modulated and can be measured quantitatively and selectively with the LiveBLAzer™-FRET B/G Loading Substrate. SelectScreen Cell-Based Pathway Profiling Service uses XLfit from IDBS. The dose response curve is curve fit to model number 205 (sigmoidal dose-response model). Custom logic was built by Thermo Fisher for the data analysis tool to address the different compound characteristics that can be observed with functional assays.
Wnt/Beta-Catenin—LEF-TCF-bla HCT116—Inhibitor Screen, Constitutively Activated
LEF-TCF-bla HCT116 cells are thawed and resuspended in Assay Media (OPTI-MEM, 0.5% dialyzed FBS, 0.1 mM NEAA, 1 mM Sodium Pyruvate, 100 U/mL/100 μg/mL Pen/Strep) to a concentration of 312,500 cells/mL. 32 μL of cell suspension is added to each well of a 384-well Poly-D-Lysine assay plate. Cells in Assay Media are incubated for 16-24 hours in the plate at 37° C./5% CO2 in a humidified incubator. 4 μL of a 10× serial dilution of ICG-001 (control inhibitor starting concentration, 25,000 nM) or compounds are added to appropriate wells of the plate. […] The plate is read on a fluorescence plate reader.

Oxidative Stress = experiment: SelectScreen CellSensor pathway inhibition, Oxidative Stress; details: ARE-bla HepG2, stimulus tBHQ
Procedure: as §1
Oxidative Stress—ARE-bla HepG2—Inhibitor Screen, Activated by tBHQ
ARE-bla HepG2 cells are thawed and resuspended in Assay Media (DMEM, 10% dialyzed FBS, 25 mM HEPES pH 7.3, 0.1 mM NEAA, 100 U/mL/100 μg/mL Pen/Strep) to a concentration of 375,000 cells/mL. 32 μL of cell suspension is added to each well of a 384-well Poly-D-Lysine assay plate. Cells in Assay Media are incubated for 16-24 hours in the plate at 37° C./5% CO2 in a humidified incubator. […] The plate is read on a fluorescence plate reader.

[1] = target: Toll-like Receptor (TLR4); experiment: SelectScreen CellSensor pathway inhibition, Toll-like Receptor (TLR4); details: NFkB-bla THP-1, stimulus LPS
Procedure: as §1
Toll-like Receptor (TLR4)—NFKB-bla THP-1—Inhibitor Screen, Activated by LPS
NFKB-bla THP-1 cells are thawed and resuspended in Assay Media (RPMI, 0.5% dialyzed FBS, 0.1 mM NEAA, 1 mM Sodium Pyruvate, 100 U/mL/[…] Pen/Strep) to a concentration of 625,000 cells/mL. 32 μL of cell suspension is added to each well of a 384-well TC-Treated assay plate. Cells in Assay Media are incubated for 16-24 hours in the plate at 37° C./5% CO2 in a humidified incubator. […] The plate is read on a fluorescence plate reader.

JAK/STAT = experiment: SelectScreen CellSensor pathway inhibition, JAK/STAT; details: ISRE-bla Jurkat, stimulus IFN-alpha
Procedure: as §1
JAK/STAT—ISRE-bla HEK 293T—Inhibitor Screen, Activated by IFN-Alpha
ISRE-bla HEK 293T cells are thawed and resuspended in Assay Media (OPTI-MEM, 0.5% dialyzed FBS, 0.1 mM NEAA, 1 mM Sodium Pyruvate, 100 U/mL/[…] Pen/Strep) to a concentration of 625,000 cells/mL. 32 μL of cell suspension is added to each well of a 384-well TC-Treated assay plate. Cells in Assay Media are incubated for 16-24 hours in the plate at 37° C./5% CO2 in a humidified incubator. […] 4 μL of 10× control activator IFN-alpha at the pre-determined EC80 concentration is added to wells containing the control inhibitor or compounds. […] The plate is read on a fluorescence plate reader.

pIC50 (Wnt/Beta-Catenin): 5.74
Compound: O=C1[C@H](Cc2ccc(O)cc2)N2C(=O)CCN(C(=O)NCc3ccccc3)[C@H]2CN1Cc1cccc2ccccc12 [ICG-001, reference compound]

pIC50 (Oxidative Stress): 5.78 | pIC50 [1]: 6.34
Compound: Cn1cc(C2=C(c3cn(CCCSC(=N)N)c4ccccc34)C(=O)NC2=O)c2ccccc21 [Ro-31-8220, reference compound]

Compound: JAK Inhibitor I [reference compound]
pIC50 (JAK/STAT): 7.72
